Earlier results as cited in patent publication US12673067B2, “Methods, agents, and devices for local neuromodulation of autonomic nerves” (Tulavi Therapeutics, Inc., priority 2016, dated 2026).
Where two headings read alike, the source gives them in different places.

What was measured:
[1] = test system: Na/K ATPase
[2] = molecular target: T1, FFA1 (Homo sapiens, UniProt O14842); details: Ca2+ mobilization, fluorescent indicator
[3] = molecular target: T2, GPR120 (Homo sapiens, UniProt Q5NUL3); details: Ca2+ mobilization, fluorescent indicator
T2 sequence (Q5NUL3 1-361): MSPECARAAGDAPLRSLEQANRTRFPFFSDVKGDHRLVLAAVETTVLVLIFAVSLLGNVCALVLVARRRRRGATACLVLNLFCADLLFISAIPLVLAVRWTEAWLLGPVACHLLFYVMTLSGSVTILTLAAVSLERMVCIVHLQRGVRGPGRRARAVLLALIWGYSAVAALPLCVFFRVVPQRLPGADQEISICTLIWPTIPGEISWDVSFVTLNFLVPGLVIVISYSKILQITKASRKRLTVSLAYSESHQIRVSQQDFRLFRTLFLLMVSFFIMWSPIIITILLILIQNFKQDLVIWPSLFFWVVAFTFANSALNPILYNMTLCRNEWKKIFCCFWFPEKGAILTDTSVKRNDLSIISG

[4] = molecular target: T3, PPARα (Homo sapiens, UniProt Q07869)
T3 sequence (Q07869 1-468): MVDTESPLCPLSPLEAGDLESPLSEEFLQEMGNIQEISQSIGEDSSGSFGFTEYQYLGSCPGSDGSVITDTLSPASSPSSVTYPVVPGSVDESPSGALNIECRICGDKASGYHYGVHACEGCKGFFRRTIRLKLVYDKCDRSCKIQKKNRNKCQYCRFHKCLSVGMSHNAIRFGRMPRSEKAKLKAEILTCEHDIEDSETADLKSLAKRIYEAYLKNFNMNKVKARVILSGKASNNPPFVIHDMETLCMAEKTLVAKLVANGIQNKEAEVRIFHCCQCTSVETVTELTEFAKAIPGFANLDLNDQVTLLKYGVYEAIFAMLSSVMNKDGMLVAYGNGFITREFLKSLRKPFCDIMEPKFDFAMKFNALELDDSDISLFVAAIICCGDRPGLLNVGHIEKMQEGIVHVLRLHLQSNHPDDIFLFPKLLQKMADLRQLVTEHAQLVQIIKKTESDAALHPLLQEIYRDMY

[5] = molecular target: T4, PPARδ (Homo sapiens, UniProt Q03181)
T4 sequence (Q03181 1-441): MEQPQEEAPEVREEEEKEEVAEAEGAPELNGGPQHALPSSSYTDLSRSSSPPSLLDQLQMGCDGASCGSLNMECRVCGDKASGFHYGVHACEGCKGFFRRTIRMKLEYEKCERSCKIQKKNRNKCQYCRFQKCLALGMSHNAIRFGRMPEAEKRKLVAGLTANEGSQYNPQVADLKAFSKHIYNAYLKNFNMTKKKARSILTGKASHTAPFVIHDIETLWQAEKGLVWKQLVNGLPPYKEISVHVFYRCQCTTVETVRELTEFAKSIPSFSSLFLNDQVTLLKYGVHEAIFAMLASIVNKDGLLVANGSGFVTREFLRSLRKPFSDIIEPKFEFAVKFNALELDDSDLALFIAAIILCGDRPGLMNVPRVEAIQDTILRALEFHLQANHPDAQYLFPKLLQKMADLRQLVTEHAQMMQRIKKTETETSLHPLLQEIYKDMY

[6] = molecular target: T5, PPARγ (Homo sapiens, UniProt P37231)
T5 sequence (P37231 1-505): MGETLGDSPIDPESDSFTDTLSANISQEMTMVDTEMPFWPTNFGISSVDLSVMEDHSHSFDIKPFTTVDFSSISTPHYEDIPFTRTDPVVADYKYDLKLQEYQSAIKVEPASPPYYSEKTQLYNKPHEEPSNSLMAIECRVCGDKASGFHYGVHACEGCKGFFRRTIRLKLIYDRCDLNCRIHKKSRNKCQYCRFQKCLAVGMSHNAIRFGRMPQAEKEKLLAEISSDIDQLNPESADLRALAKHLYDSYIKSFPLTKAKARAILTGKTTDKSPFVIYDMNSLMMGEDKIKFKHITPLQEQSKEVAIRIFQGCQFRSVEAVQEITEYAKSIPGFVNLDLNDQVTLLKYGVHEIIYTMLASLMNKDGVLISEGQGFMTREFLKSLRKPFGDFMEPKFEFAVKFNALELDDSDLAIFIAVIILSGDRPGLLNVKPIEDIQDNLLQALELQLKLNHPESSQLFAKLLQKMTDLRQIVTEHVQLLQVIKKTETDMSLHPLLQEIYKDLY

[7] = molecular target: T1, FFA1; details: footnote a: ERK activation (Smith 2009) or aequorin reporter (Kotarsky 2003)
[8] = test system: Na+-H+ exchange (NHE)
[9] = molecular target: T6, H+K+ATPase (Oryctolagus cuniculus, UniProt P27112); details: microsomal membranes from rabbit fundic mucosa; read-out: IC50, inhibition of isolated H+K+ATPase enzyme activity
T6 construct: a preparation of microsomal membranes from rabbit fundic mucosa; from tissue; host or cells: rabbit fundic mucosa, microsomal membranes

[10] = test system: organic anion transporters (OAT); details: at 0.5-1 mM
[11] = test system: cultured mammalian cells
[12] = test system: Aquaporin 4 (AQP4); details: pretreatment, mouse focal cerebral ischemia
[13] = molecular target: T1, FFA1; details: footnote b: insulin secretion/DMR assay
[14] = molecular target: T7, FFA2 (Homo sapiens, UniProt O15552)
T7 sequence (O15552 1-330): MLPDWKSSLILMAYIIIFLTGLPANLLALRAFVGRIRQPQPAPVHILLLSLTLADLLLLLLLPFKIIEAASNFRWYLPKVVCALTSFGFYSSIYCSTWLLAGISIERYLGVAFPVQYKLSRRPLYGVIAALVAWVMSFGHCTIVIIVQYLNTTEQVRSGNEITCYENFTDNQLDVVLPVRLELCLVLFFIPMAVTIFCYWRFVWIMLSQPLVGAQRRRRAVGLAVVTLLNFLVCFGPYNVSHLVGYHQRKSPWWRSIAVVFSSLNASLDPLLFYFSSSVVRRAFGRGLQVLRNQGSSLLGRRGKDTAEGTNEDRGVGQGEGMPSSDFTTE

[15] = molecular target: T8, FFA3 (Homo sapiens, UniProt O14843)
T8 sequence (O14843 1-346): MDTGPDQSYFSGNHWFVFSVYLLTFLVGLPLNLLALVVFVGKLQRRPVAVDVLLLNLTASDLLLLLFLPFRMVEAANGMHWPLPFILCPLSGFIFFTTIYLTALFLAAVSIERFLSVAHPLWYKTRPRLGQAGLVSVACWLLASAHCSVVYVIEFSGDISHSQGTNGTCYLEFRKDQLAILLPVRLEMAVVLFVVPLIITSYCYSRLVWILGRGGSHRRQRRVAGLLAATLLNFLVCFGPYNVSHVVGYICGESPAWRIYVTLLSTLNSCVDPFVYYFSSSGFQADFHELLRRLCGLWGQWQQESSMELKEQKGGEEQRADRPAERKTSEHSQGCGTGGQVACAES

[16] = molecular target: T9, KCC2 (Homo sapiens, UniProt Q9H2X9)
T9 sequence (Q9H2X9 1-1139): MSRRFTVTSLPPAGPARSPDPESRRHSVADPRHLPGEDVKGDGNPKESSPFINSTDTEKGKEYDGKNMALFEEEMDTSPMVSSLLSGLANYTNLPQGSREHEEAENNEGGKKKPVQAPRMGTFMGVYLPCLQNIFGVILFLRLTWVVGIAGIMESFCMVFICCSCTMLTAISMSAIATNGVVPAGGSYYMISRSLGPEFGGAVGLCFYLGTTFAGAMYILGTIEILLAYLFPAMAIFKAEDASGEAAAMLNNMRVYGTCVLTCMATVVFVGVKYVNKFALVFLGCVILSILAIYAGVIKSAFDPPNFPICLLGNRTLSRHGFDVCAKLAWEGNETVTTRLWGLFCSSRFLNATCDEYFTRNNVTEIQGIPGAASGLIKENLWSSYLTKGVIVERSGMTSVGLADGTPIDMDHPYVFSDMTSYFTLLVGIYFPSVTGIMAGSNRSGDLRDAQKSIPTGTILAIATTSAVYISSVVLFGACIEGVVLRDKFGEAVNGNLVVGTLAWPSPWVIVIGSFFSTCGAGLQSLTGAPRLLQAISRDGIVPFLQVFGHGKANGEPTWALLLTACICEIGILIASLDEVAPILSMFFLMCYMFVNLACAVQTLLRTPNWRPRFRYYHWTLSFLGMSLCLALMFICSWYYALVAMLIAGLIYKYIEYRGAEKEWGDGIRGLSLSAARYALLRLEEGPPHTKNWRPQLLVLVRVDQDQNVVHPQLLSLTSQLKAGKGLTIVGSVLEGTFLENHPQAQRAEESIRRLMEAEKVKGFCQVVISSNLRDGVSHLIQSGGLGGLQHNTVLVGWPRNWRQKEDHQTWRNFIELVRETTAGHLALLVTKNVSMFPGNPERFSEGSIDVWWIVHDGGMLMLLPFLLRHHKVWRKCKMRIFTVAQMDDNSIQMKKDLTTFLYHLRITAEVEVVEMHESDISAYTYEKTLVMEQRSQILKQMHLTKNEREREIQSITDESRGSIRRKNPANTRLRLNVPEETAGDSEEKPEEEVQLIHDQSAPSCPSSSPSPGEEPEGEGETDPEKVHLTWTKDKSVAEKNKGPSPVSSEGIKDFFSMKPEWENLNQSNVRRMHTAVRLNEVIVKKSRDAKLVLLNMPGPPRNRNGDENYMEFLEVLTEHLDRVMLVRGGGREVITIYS

[17] = test system: human platelets
[18] = rats
[19] = in vivo
[20] = test system: stellate ganglion; details: dog, in vivo

T1 sequence (O14842 whole entry): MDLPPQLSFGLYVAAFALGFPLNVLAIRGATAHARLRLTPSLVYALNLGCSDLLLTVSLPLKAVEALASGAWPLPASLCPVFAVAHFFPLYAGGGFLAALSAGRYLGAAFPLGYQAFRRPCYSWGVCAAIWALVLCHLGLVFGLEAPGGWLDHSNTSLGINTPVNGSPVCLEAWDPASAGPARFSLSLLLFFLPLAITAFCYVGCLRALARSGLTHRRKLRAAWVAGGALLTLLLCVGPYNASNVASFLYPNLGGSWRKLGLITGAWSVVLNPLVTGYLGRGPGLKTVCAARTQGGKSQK
T6 sequence (P27112 whole entry): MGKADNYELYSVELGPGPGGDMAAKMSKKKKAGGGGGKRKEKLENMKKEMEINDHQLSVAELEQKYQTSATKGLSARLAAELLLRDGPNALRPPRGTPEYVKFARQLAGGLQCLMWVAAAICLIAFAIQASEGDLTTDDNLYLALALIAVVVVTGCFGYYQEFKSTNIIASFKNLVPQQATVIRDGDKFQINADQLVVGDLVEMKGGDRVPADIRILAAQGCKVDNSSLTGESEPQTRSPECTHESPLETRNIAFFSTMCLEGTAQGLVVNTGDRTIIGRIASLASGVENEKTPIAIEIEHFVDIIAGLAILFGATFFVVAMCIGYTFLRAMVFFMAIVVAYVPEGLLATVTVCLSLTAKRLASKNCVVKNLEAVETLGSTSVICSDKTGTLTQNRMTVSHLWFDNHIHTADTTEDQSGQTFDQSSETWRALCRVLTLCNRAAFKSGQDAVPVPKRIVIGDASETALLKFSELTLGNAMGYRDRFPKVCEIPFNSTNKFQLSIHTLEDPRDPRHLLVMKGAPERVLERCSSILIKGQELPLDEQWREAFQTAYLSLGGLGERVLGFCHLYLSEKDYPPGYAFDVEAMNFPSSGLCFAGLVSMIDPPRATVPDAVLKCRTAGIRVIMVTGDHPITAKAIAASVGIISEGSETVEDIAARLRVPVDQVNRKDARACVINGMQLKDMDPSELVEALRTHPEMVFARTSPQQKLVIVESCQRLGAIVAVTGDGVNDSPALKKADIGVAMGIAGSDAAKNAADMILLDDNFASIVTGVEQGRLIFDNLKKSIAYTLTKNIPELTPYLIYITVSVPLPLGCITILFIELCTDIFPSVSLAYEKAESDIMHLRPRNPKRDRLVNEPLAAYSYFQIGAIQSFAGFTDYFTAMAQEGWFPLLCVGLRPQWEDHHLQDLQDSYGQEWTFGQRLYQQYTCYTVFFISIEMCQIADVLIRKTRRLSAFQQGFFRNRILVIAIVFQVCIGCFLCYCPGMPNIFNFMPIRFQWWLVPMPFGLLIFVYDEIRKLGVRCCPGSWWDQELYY
T6 sequence (P18597 whole entry partner): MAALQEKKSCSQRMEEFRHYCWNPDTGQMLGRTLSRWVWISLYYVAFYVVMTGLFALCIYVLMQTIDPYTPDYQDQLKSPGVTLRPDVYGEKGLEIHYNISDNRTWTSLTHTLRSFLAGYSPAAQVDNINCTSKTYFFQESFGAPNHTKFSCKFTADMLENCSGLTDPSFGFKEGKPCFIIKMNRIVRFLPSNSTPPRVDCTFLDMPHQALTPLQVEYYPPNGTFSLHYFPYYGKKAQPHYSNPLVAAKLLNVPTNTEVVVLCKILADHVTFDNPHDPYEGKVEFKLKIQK

O=c1c2ccc(O)c(O)c2oc2c(O)c(O)ccc12 [3,4,5,6-Tetrahydroxyxanthone]
affinity of Na/K ATPase pump inhibition [1]: comparable to ouabain

CC/C=C\C/C=C\C/C=C\C/C=C\C/C=C\C/C=C\CCC(=O)O [DHA (C22:6), DHA]
FFA1 pEC50 [2]: 5.4-6.0 | GPR120 pEC50 [3]: 5.4

O=C(O)CCc1ccc(NCc2cccc(Oc3ccccc3)c2)cc1 [GW9508]
FFA1 pEC50 [2]: 6.6-7.3 | pEC50 for PPARα [4]: 4.0 | pEC50 for PPARδ [5]: 4.0 | pEC50 for PPARγ [6]: 4.9

O=C(O)CCCc1ccc(OCCN(c2ccccc2)c2ccccn2)cc1 [NCG21 (Cpd 12)]
FFA1 pEC50 [2]: 4.7 | GPR120 pEC50 [3]: 5.9 | PPARα agonist activity ([4]; at 100 μM): Lacks PPARα, δ, and γ | PPARδ agonist activity ([5]; at 100 μM): Lacks PPARα, δ, and γ | PPARγ agonist activity ([6]; at 100 μM): Lacks PPARα, δ, and γ

CCCCCCCC/C=C\CCCCCCCC(=O)O [Oleic acid (C18:1), Oleic acid]
FFA1 pEC50 [2]: 4.4-5.7

CCCCCCCCCCCCCCCC(=O)O [Palmitic acid (C18:0), Palmitic acid]
FFA1 pEC50 [2]: 5.2-5.3

CN(CCOc1ccc(CC2SC(=O)NC2=O)cc1)c1ccccn1 (centres unmarked) [Rosiglitazone]
FFA1 pEC50 [7]: 5.0-5.6^a

Cc1ccc(CN(Cc2ccc(-c3ccccc3S(=O)(=O)NC#N)cc2)C(=O)c2ccccc2Cl)cc1 [S0859]
inhibition of Na+-H+ exchange (NHE) [8]: does not inhibit

Cc1nc2c(OCc3ccccc3)nccn2c1N [SCH 32651]
IC50 [9]: 200 µM

Cc1nc2c(OCc3ccccc3)cccn2c1CC#N [SCH-28080]
IC50 [9]: 2.5 µM

C=C1C[C@@]23CC[C@H]4[C@@](C)(CCC[C@@]4(C)C(=O)O[C@@H]4O[C@H](CO)[C@@H](O)[C@H](O)[C@H]4O)[C@@H]2CC[C@]1(O[C@@H]1O[C@H](CO)[C@@H](O)[C@H](O)[C@H]1O[C@@H]1O[C@H](CO)[C@@H](O)[C@H](O)[C@H]1O)C3 [Stevioside]
interaction with organic anion transporters (OAT) [10]: no interaction | genotoxic effects [11]: genotoxic effects

O=C(Nc1nncs1)c1cccnc1 [TGN-020]
volume of brain edema associated with ischemic injury [12]: significantly reduced

Cc1ccccc1C#Cc1ccc(CCC(=O)O)cc1 [TUG424]
FFA1 pEC50 [13]: 7.5^b | activity at FFA2 [14]: No activity at FFA2 and FFA3 reported (TUG424). | activity at FFA3 [15]: No activity at FFA2 and FFA3 reported (TUG424).

Cc1csc(NC(=O)CSc2ccc(-c3ccccc3)nn2)n1 [VU024055 1]
selectivity for KCC2 over NKCCI [16]: selective

N=C(N)NC(=O)c1cnn(-c2cccc3ncccc23)c1C1CC1 [Zoniporide]
swelling of human platelets [17]: inhibits | cardiac contractile dysfunction [18]: attenuates | peripheral sensory axonopathy [19]: causes peripheral sensory axonopathy

NGF: nerve growth factor injected into the stellate ganglion of dogs
QTc [20]: shortened | QTc interval [20]: prolonged | SCD [20]: did not cause SCD | risk of SCD [20]: 50%
